These results are taken from patent US9370182B2, “Antimicrobial peptide and use thereof” (TOAGOSEI CO., LTD., priority 2012, dated 2016).

What all share (format): cell-based
In assay [1] the test system is E. coli (NIH-JC2). The settings on record: for Antimicrobial activities (MIC in μM) E. coli: NIH-JC2, 24 h. How it is done:
(§1) The two bacterial strains (S. aureus, E. coli) were subcultured from storage media to agar plate media (“Mueller Hinton Agar” available from DIFCO), then inoculated into liquid media (“Mueller Hinton broth II” available from DIFCO) and cultured at 30° C. or 37° C. for 24 hours. Subsequently, the aforementioned medium was added to the culture media to dilute and prepare inocula at bacterial concentrations of 2×10^5 cells/mL.
(§2) Antimicrobial activity tests were conducted as follows.
(§3) The peptide-containing solutions prepared to the respective concentrations were aliquoted into 96-well microplates at 20 μL per well. In test sections against the fungus, 80 μL of the MOPS-buffered RPMI1640 medium was added to each well. In test sections against the bacteria, 80 μL of the liquid medium (Mueller Hinton broth II) was added to each well.
(§4) Subsequently, 100 μL of one of the inocula was added to each well and incubation was started in an incubator at 30° C. or 37° C. After 24 hours, the multiplication (growth) of the microorganisms was analyzed by measurements of turbidity (OD600).

Assay [2] relates to S. aureus (209P). The settings on record: for Antimicrobial activities (MIC in μM) S. aureus: 209P, 24 h. The protocol: as §1, §2, §3, §4
For assay [3], the system named is C. albicans (NBRC-1594). The settings on record: for Antimicrobial activities (MIC in μM) C. albicans: NBRC-1594, 24 h. How it is done: On the other hand, with respect to the one fungus strain (C. albicans), the surface of a slant culture was washed with a physiological saline containing 0.1% Tween® 80 to prepare a conidial suspension. The suspension was filtered with a Falcon® cell strainer and diluted with a MOPS-buffered RPMI1640 medium to prepare an inoculum at a fungus concentration of 2×10^4 cells/mL.
as §2, §3, §4

[4] abbreviates: summary of Table 2, all microorganism strains.

Where no end group is shown, it is not given here.

Turning to “MAATGTAAAAATGKLLVLLLLGLTAPAAA [Sample 6]”, in assay [1], the “Antimicrobial activities (MIC in μM) E. coli” value came to 16 µM. Further, in assay [2], the “Antimicrobial activities (MIC in μM) S. aureus” value came out at 8 µM. Moreover, the “Antimicrobial activities (MIC in μM) C. albicans” value in assay [3] was determined as 16 µM.

Consider “MAATGTAAAAATGRLLLLLLVGLTAPALA [Sample 5]”, for which the “Antimicrobial activities (MIC in μM) E. coli” value in assay [1] amounted to 16 µM. Besides, the “Antimicrobial activities (MIC in μM) S. aureus” value in assay [2] was 8 µM. The “Antimicrobial activities (MIC in μM) C. albicans” value in assay [3] was determined as 16 µM.

Regarding “MGPASPAARGLSRRPGQPPLPLLLPLLLLLLRAQPAIG [Sample 3]”, the “Antimicrobial activities (MIC in μM) E. coli” value in assay [1] came out at 16 µM. The “Antimicrobial activities (MIC in μM) S. aureus” value in assay [2] came out at 4 µM. Besides, the “Antimicrobial activities (MIC in μM) C. albicans” value in assay [3] was found to be 16 µM.

With “MGPTSPAARGQGRRWRPPLPLLLPLSLLLLRAQLAVG [Sample 4]”, in assay [1], the “Antimicrobial activities (MIC in μM) E. coli” value turned out to be 16 µM. In assay [2], the “Antimicrobial activities (MIC in μM) S. aureus” value is 4 µM. Also, the “Antimicrobial activities (MIC in μM) C. albicans” value in assay [3] amounted to 16 µM.

As to MLPGLALLLLAAWTARA [Sample 1], in assay [1], the “Antimicrobial activities (MIC in μM) E. coli” value was determined as 32 µM. For the same sequence, the “Antimicrobial activities (MIC in μM) S. aureus” value in assay [2] is 16 µM. Further, the “Antimicrobial activities (MIC in μM) C. albicans” value in assay [3] came out at 32 µM.

As for MLPSLALLLLAAWTVRA [Sample 2], the “Antimicrobial activities (MIC in μM) E. coli” value in assay [1] stood at 32 µM. The “Antimicrobial activities (MIC in μM) S. aureus” value in assay [2] was 16 µM. For the same sequence, the “Antimicrobial activities (MIC in μM) C. albicans” value in assay [3] was 32 µM.

For the sequence “TLHQQCIRVLKNNID [Sample 7, reference compound]”, the “Antimicrobial activities (MIC in μM) E. coli” value in assay [1] was greater than 256 µM. Moreover, the “Antimicrobial activity in words, E. coli” value in assay [1] (setting [4]) was “no antimicrobial activities were observed”. For the same sequence, in assay [2], the “Antimicrobial activities (MIC in μM) S. aureus” value was greater than 256 µM. Besides, the “Antimicrobial activity in words, S. aureus” value in assay [2] (setting [4]) is “no antimicrobial activities were observed”. Moreover, the “Antimicrobial activities (MIC in μM) C. albicans” value in assay [3] was greater than 256 µM. Further, in assay [3] (setting [4]), the “Antimicrobial activity in words, C. albicans” value is recorded as “no antimicrobial activities were observed”.
